Test system: CTG-2041 tumors
Assay: Sarcoma PDX model CTG-2041 (angiosarcoma)
Assay type: in vivo, athymic nude mice
Description: Macrophages were allowed to thaw on ice before being lysed with 250 μL/well of 1× Lysis Buffer (Cell Signaling Technology; #9803) and Halt protease and phosphatase inhibitors (ThermoFisher Scientific) for 1 hour at 4° C. The lysed cells were scraped and transferred to an Eppendorf vial on ice. The lysates were centrifuged at 12,700 rpm for 15 minutes at 4° C. PDX tumors were weighed and homogenized with lysis buffer supplemented with protease and phosphatase inhibitor cocktails (Roche, Basel, Switzerland; #11836170001). Tumors were lysed on ice for 30 minutes, followed by centrifugation at 13,000 rpm for 10 minutes. Protein lysates were quantified using BCA Protein Assay Kit (Pierce, ThermoFisher Scientific; #23225). Lysates were transferred to a new tube together with 6× Laemmli SDS sample buffer (Alfa Aesar, Haverhill, Mass.) and the samples were heated for 6 minutes at 95° C. Approximately 50 μg of protein sample was loaded per well using Novex™ 8-16% Tris-Glycine Mini Gels or 4-12% Tris-Glycine Novex WedgeGels (Invitrogen, Carlsbad, Calif.). The proteins were transferred to a nitrocellulose membrane using an iBlot (ThermoFisher Scientific) dry blotting system. The membranes were blocked with 0.5% nonfat dry milk in wash buffer (100 mM NaCl, 10 mM Tris-HCl, pH 8.0, 0.1% Tween 20) for 1 hour at room temperature. The primary antibody used for pMER was from PhosphoSolutions (Aurora, Colo.; #p186-749). The remaining antibodies were obtained from Cell Signaling Technology: MER (#4319), pAXL (#5724), AXL, (#4566), GAS6 (#67202), pAKT (#4060), AKT (#9272), and β-Actin (#4970). Primary antibodies were added at 1:500 and 1:1000, respectively, in 0.5% milk/wash buffer and rocked overnight at 4° C. The membranes were washed three times in wash buffer before incubation with the secondary antibody (anti-rabbit IgG1-HRP; Cell Signaling Technology) at 1:2500 in 0.5% milk/wash buffer for 2 hours at room temperature. The membranes were washed again before the bands were detected with SuperSignal West Dura Extended Duration Chemiluminescent substrate (ThermoFisher Scientific) and were visualized using the Fluorochem M Digital Imager (Protein Simple, San Jose, Calif.).
MBT-2 cells were obtained from the Japanese Collection of Research Bioresources Cell Bank and were maintained in DMEM supplemented with 10% FBS. MC38 cells were obtained from the NCI. 4T1 cells were obtained from ATCC and maintained in RPMI media supplemented with 10% FBS. For MBT-2 experiments, 5×10^5 MBT-2 cells were inoculated subcutaneously into the right hind flank of 6- to 8-week-old C3H mice or athymic nude mice (Charles River Laboratories, Wilmington, Mass.). For MC38 studies, 12-week old female C57BL/6 mice were inoculated with brei of MC38 tumors (in-vivo passage 6) into the right hind flank. For 4T1 studies, 7.5×10^5 4 T1 cells were inoculated subcutaneously into the right hind flank of 6- to 8-week-old female BALB/c mice or athymic nude mice (Charles River Laboratories). Mice were randomized by tumor volume with n=10-12 per group. Compound 1 was dosed orally twice a day (BID) continuously from the start to the end of study. In the MC38 study, anti-programmed death ligand 1 (PD-L1) (BE0101, Bio X Cell, West Lebanon, NH) was dosed intraperitoneally at 15 mg/kg twice a week. […] Mice were monitored for tumor growth and overt tolerability over the course of the experiment. […]

Compound: CC(C)C(=O)N1CCC(c2cc(-c3ccc(NC(=O)c4cn(C(C)C)c(=O)n(-c5ccccn5)c4=O)cc3)c3c(N)ncnn23)CC1 [Compound 1, N-(4-(4-Amino-7-(1-isobutyrylpiperidin-4-yl)pyrrolo[1,2-f][1,2,4]triazin-5-yl)phenyl)-1-isopropyl-2,4-dioxo-3-(pyridin-2-yl)-1,2,3,4-tetrahydropyrimidine-5-carboxamide]
- TGI (CTG-2041, equivalent activity at 10, 30 and 100 mg/kg BID oral, FIG. 9A): 95%
- GAS6 levels in tumors (Western blot) (CTG-2041 tumors, FIG. 9D): increased
- pAKT in tumors (Western blot) (CTG-2041 tumors, FIG. 9D): inhibited
- pAXL and pMER in tumors (Western blot) (CTG-2041 tumors, FIG. 9D): inhibited
- total MER levels in tumors (Western blot) (CTG-2041 tumors, FIG. 9D): increased
